Data as given in US20200345746A1, “Oxazine Derivative for Use in the Prevention of Alzheimer's Disease in at Risk Patents” (Novartis AG, priority 2016, published 2020).
Where “and” joins values, the source holds several entries; their conditions need not be identical. Equal values may be shown once. Entries after “also recorded” stand apart in the source; their conditions may differ.

What was measured:
[1] = test system: C57BL/6 mice; assay: Fur colour scoring, chronic 8-week dosing in wild-type mice; assay type: in vivo, mouse; conditions: 8 and 50 μmol/kg p.o. once daily, 8 weeks
Procedure: Compound 1 and NB-360 were formulated as a suspension. […] Vehicle: […] in 0.5% methylcellulose in water.
Body weight was taken 3 times per week (Monday, Wednesday, Friday). Subjective scoring of any hair colour changes was performed once weekly (Wednesday). Scores (% of body with grey fur): 0: No change; 1: Spots; 2: >30%; 3: >50%; 4: >75%; 5: 100%. Animals were photo-documented when fur color change was observed. Final fur color scoring was performed blinded and by a person not involved in the study.

[2] = test system: total Aβ (40+42); assay: Formic acid soluble total Aβ (40+42) and Aβ42/40 ratio in APP23 mouse forebrain; assay type: in vivo
Procedure: (§1) Frozen mouse forebrains were weighed and homogenized in 9 volumes (w/v) of ice-cold TBS-Complete (20 mM Tris-HCl pH 7.4, 137 mM NaCl, 1× Complete [Protease Inhibitor Cocktail Tablets: 1 836 145, Roche Diagnostics GmbH, Penzberg, Germany]) by sonication (90% duty cycle, output control 5, 40-55 pulses, [Sonifier 450, Branson]). After homogenization several 50 μl aliquots were prepared for analysis and were stored at −80° C.
(§2) Fifty microliter of forebrain homogenate was mixed with 116.6 μl 100% formic acid, resulting in a final formic acid concentration of 70%. Samples were stored on ice and vortexed every 5 minutes. For neutralization, 50 μl of the mixture were pipetted into a new tube, and 950 μl of 1 M Tris base, containing 1× Complete Protease inhibitor, was added. Tubes were stored at room temperature overnight and then centrifuged for 15 minutes at 14000 rpm in an Eppendorf Microzentrifuge at 4° C. From the top layer, 100 μl are removed and mixed with 100 μl of 3% Blocker A solution (part of the MesoScale assay kit). This sample was either directly applied to the assay plate (dilution 1:1332) or further diluted in 1% Blocker A solution.

[3] = test system: sAPPα; assay: Triton TX-100 soluble sAPPα in APP23 mouse brain; assay type: in vivo; conditions: APP23 mice
Procedure: as §1
Brain homogenates were extracted with 1% Triton X-100 in buffer and the resulting supernatant was considered to represent soluble forms of APP metabolites. In addition to Aβ40 and 42, we determined the N-terminal APP fragments sAPPα (direct cleavage product of α-secretase) and sAPPβ (Swe) (direct product of BACE1 cleavage). […] Since no change in the APP expression and Aβ generation is known to happen during this age, it is assumed that the increased values in the vehicle group (18-20 mo old) arise from “leakage” out of the Aβ deposits (which increase several fold, see below).

[4] = test system: Aβ40; assay: Aβ40 in APP23 mouse CSF; assay type: in vivo; conditions: APP23 mice; for CSF Aβ40 Mean ± SEM: 6 months
Procedure: Mouse CSF samples (3 μl) was diluted with 57 μL 1% Blocker A (MSD) and 25 μl were applied to the assay plate.
CSF was collected from all mice at necropsy. Samples from the baseline group were stored for approximately 6 months, and analyzed together with the rest of the samples at the end of the study. […] The reason for the high baseline values is currently not known. It is hypothesized that this is an effect of long term storage, when dissociation of oligomeric forms of Aβ may lead to higher monomeric concentrations. CSF Aβ, more than Triton TX-100 solubilized Aβ from brain extracts, represents the steady-state concentration of soluble amyloid-β that directly responds to changes in Aβ generation.

[5] = test system: Aβ40; assay: Formic acid soluble Aβ40 in APP23 mouse forebrain; assay type: in vivo
Procedure: as §1, §2

[6] = test system: Aβ40; assay: Aβ40 in C57BL/6 mouse brain after chronic dosing (MSD assay); assay type: in vivo; conditions: for Average Aβ40 brain: mean ± SD, n = 4
Procedure: as §1
Human Aβ peptide (1-40) trifluoroacetate salt (H 1194.1000, Bachem, Bubendorf, Switzerland) was used as calibration curve for Aβ1-40. It was solubilized in water-free DMSO (41647, Fluka) at a concentration of 1 mg/ml for approximately 30 min at room temperature (RT) and then visually checked for complete solubilization.
Endogenous Aβ40 in mice was determined with the Meso Scale Discovery (MSD) 96-well MULTI-ARRAY human/rodent (4G8) Aβ40 Ultrasensitive Assay (#K110FTE-3, Meso Scale Discovery, Gaithersburg, USA). The assay was performed according to the manufacturer's instructions except for the calibration curve and the sample preparations. TritonX-100 (TX-100) soluble Aβ40 was extracted from forebrain with 1% TX-100 using a 50 μl aliquot of each 1:10 forebrain homogenate, mixed with 50 μl 2% TX-100 in TBS complete (20 mM Tris-HCl pH 7.4, 137 mM NaCl, 1× Complete [Protease Inhibitor Cocktail Tablets: 1 836 145, Roche Diagnostics GmbH, Penzberg Germany]) to reach a final concentration of 1% TX-100 and a 1:20 forebrain dilution. The samples were incubated for 15 min on ice and vortexed every 5 min. The samples were ultra-centrifuged (100000×g, 4° C., 15 min) and 50 μl of the clear supernatants were transferred to fresh tubes. For the Aβ40 assay the supernatants were further diluted 1:5 in 3% Blocker A solution (from kit) to a final forebrain dilution of 1:100 and applied to the plate.
The calibration curve was prepared in a corresponding dilution of 1% Blocker A solution spiked with synthetic Aβ1-40 peptide (1.56-100 pg/ml) except for non-transgenic mouse brain samples: In this case, the calibration curve was prepared in a correspondingly diluted APP knockout mouse forebrain spiked with synthetic Aβ1-40 peptide (1.56-100 pg/ml). For all samples and standards 25 μl were applied per well. For each determination duplicate wells were performed. The mean values from the duplicate wells were used for calculations.
At the last day of the study, groups of n=4 mice were sacrificed 4 hours and 24 hours after having received the last dose. Forebrain was separated, and analyzed for β-amyloid peptide 1-40. Concentrations of Aβ40 for the vehicle and treatment groups are summarized in Table 6 and visualised in FIG. 2. The percent of reduction versus the corresponding vehicle treated group was calculated.

[7] = in vivo; conditions: APOE4-TR, mouse; for AUC(0-t): po

With `C[C@@]1(c2nc(NC(=O)c3ncc(C(F)(F)F)cc3Cl)ccc2F)CO[C@@](C)(C(F)(F)F)C(N)=N1` [Compound 1, N-(6-((3R,6R)-5-amino-3,6-dimethyl-6-(trifluoromethyl)-3,6-dihydro-2H-1,4-oxazin-3-yl)-5-fluoropyridin-2-yl)-3-chloro-5-(trifluoromethyl)picolinamide] the fur colour change [1] was “no apparent fur color change detectable; also recorded: did not show signs of hair discoloration”, the “Formic acid soluble Total Aβ change vs vehicle” value ([2]; APP23, 0.03 g/kg vs vehicle) was −17.9% and the “Formic acid soluble Total Aβ change vs vehicle” value ([2]; APP23, 0.3 g/kg vs vehicle) was −79.8%. For the same molecule, the “reduction of deposited Aβ40 and Aβ42 vs vehicle” value ([2]; APP23, high dose) was “around 80%”, the “reduction of deposited Aβ40 and Aβ42 compared to vehicles” value ([2]; APP23, low dose) was “around 17%” and the “sAPPα change vs vehicle” value ([3]; 0.03 g/kg vs vehicle) was “+44%”. The “increase in sAPPα” value ([3]; 0.3 g/kg dose) was 3 fold, the “sAPPα change vs vehicle” value ([3]; 0.3 g/kg vs vehicle) was “+279.8%” and the “CSF Aβ40 Change vs vehicle” value ([4]; 0.03 g/kg food) was −8.6%. The “CSF Aβ40 Mean ± SEM” value ([4]; 0.03 g/kg food) was 31.2 ± 2.11 ng/mL, the “CSF Aβ40 Change vs vehicle” value ([4]; 0.3 g/kg food) was −54.3% and the “CSF Aβ40 Mean ± SEM” value ([4]; 0.3 g/kg food) was 15.6 ± 1.8 ng/mL. The “Formic acid soluble Aβ40 change vs vehicle” value ([5]; APP23, 0.03 g/kg vs vehicle) was −18.1%, the “Formic acid soluble Aβ40 change vs vehicle” value ([5]; APP23, 0.3 g/kg vs vehicle) was −79.2% and the “Average Aβ40 brain” value ([6]; C57BL/6, 8 μmol/kg q.d. 8 weeks, 4 h after last dose) was 432.8 ± 140.5 pg/g. For the same molecule, the “Average Aβ40 brain” value ([6]; C57BL/6, 8 μmol/kg q.d. 8 weeks, 24 h after last dose) was 1098.6 ± 148.7 pg/g, the “% reduction vs vehicle (brain Aβ40)” value ([6]; C57BL/6, 8 μmol/kg, 4 h after last dose) was 67.1% and the “% reduction vs vehicle (brain Aβ40)” value ([6]; C57BL/6, 8 μmol/kg, 24 h after last dose) was 25% and 25.3%. For the same molecule, the “Mini AU EC (brain Aβ40)” value ([6]; C57BL/6, 8 μmol/kg, after last dose) was 46.2%, the “Average Aβ40 brain” value ([6]; C57BL/6, 50 μmol/kg q.d. 8 weeks, 4 h after last dose) was 93.4 ± 83.7 pg/g and the “Average Aβ40 brain” value ([6]; C57BL/6, 50 μmol/kg q.d. 8 weeks, 24 h after last dose) was 233.8 ± 36.5 pg/g. The “% reduction vs vehicle (brain Aβ40)” value ([6]; C57BL/6, 50 μmol/kg, 4 h after last dose) was 92.9%, the “% reduction vs vehicle (brain Aβ40)” value ([6]; C57BL/6, 50 μmol/kg, 24 h after last dose) was 84.1% and the “Mini AU EC (brain Aβ40)” value ([6]; C57BL/6, 50 μmol/kg, after last dose) was 88.5%. For the same molecule, the “Aβ40 reduction over the whole 24 hour time course” value ([6]; C57BL/6, 50 μmoles/kg, after last dose) was 80-90%, the “exposure reduction 4h/24h” value [7] was 2-5 fold and the “AUCbrain (AUC0-24 h)” value ([7]; 3 umol/kg) was 8.67 µmol·h/kg. The “AUCbrain (AUC0-24 h)” value ([7]; 10 umol/kg) was 15.83 µmol·h/kg, the “AUCbrain (AUC0-24 h)” value ([7]; 30 umol/kg) was 49.82 µmol·h/kg and the AUC(0-t) ([7]; 3 umol/kg) was 1.56 µM·h. For the same molecule, the AUC(0-t) ([7]; 10 umol/kg) was 4.86 µM·h and the AUC(0-t) ([7]; 30 umol/kg) was 14.9 µM·h.
